Experimental data published in publication PMC5482477, “Overexpression and characterization of two types of nitrile hydratases from Rhodococcus rhodochrous J1” (PLoS ONE, 2017).

Target: T1, H-NHase (NhhBA) (Rhodococcus rhodochrous, UniProt P21219+P21220)
T1 construct: gene nhhA; alpha10beta10, 504 kDa by gel filtration; cobalt-containing
T1 sequence (P21219 2-203): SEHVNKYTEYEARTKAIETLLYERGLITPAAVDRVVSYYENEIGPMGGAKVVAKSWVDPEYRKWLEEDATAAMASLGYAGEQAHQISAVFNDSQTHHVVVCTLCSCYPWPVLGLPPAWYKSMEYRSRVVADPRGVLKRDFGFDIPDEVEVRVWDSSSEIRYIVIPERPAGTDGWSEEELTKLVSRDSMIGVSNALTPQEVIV
T1 sequence (P21220 1-229): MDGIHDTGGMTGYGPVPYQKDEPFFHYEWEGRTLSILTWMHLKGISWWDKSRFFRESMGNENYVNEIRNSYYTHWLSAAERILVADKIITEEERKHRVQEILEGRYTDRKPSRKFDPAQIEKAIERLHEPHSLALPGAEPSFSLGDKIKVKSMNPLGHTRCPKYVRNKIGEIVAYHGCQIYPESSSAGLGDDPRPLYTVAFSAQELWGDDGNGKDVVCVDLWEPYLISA
Assay: residual activity after […] min treatment, HPLC
Assay type: biochemical

With `NC(=O)c1cccnc1` [nicotinamide] the remaining activity at 1.5 M was 60%.
